{"source": "patent US20030007998A1", "about": "“Unsaturated lipid-enriched feedstock for ruminants” (priority 2001, published 2003)", "key": {"rumen fluid": {"system": "rumen fluid", "details": "in vitro, J. Dairy Sci., 78, 2797 (1995); cited from earlier work"}, "Holstein cows [1]": {"system": "Holstein cows", "assay": "Dairy cattle feeding trial, dietary monensin in linseed oil diets", "format": "in vivo", "procedure": "(§1) Eight Holstein cows are selected and equipped with rumen and duodenal cannulae. All cows are housed in individual tie stalls and are commencing the trial at 45 days in lactation.\n(§2) The eight cows are employed in two four-by-four Latin Square designs. Each square has four cows with four treatments imposed. The four treatments are 0, 10, 40 and 70 mg/kg DM of dietary monensin. Each square has a different source of dietary fatty acids. In the first square, dietary fat is supplied by linseed oil, which has a high proportion of fatty acid linolenate. The second square has the dietary fat supplied by MEGALAC, which is a calcium salt of palm oil fatty acids having a high proportion of fatty acid oleate.\n(§3) Cows are fed identical diets in both squares except for source of fatty acids, and are formulated for high production. Nutrient composition is formulated for all diets at 17% crude protein with 65% as rumen undegradable protein, 26% Neutral Detergent Fiber, 1.7 Mcal/kg net energy. All diets contain 4% added fat on a dry matter basis from MEGALAC or linseed oil. A daily dry matter intake of 25 kg/cow is calculated to deliver approximately 1 kg of linseed oil or MEGALAC per cow per day. Remaining dietary ingredients are low in fat, and include alfalfa haylage, corn silage, corn, barley, soybean meal, blood meal, Smartamine-M (rumen bypass methionine), sodium bicarbonate and vitamin-mineral premix. All diets are offered as Total Mixed Rations twice daily in quantities to assure at least 10% refusal per day of the amount offered.\n(§4) Cows are fed their assigned diets for two weeks, with week one as an adaptation and week two as the experimental feeding period. Sampling is on the last 3 days of this second week. All cows are then moved onto a different diet in such a manner that by the end of the trial all cows have received all diets within each Latin Square.\n(§5) During the second week of each period daily, dry matter intake and milk production are recorded. Total mixed rations are sampled daily and composited weekly. These are analyzed for crude protein, NDF and total fat. During the last 3 days of the second week individual proportional milk samples are taken and separated into two subsamples. One subsample is used to assay for total fat content and true protein, and the second is frozen for subsequent analysis of fatty acid profile in the milk.\n(§6) During the last 3 days of the second week, rate of passage from the rumen is estimated using dye marker techniques. The liquid and solids markers are placed into the rumen daily beginning on day 7 of the adaptation period, with duodonal samples taken on the last 3 days of the experimental period. Duodenal samples are stored frozen for later analysis of total fat, fatty acid profile and marker. Concurrent rumen samples are taken. Liquid turnover rate is estimated from the dilution of dye in the liquid portion of rumen samples. Rumen contents are assayed for total fat, fatty acid profile and marker. Each Latin square is analyzed separately."}, "Holstein cows [2]": {"system": "Holstein cows", "assay": "Dairy cattle feeding trial, dietary monensin in MEGALAC diet", "format": "in vivo", "procedure": "as §1, §2, §3, §4, §5, §6"}, "Hereford steers [3]": {"system": "Hereford steers", "assay": "Beef cattle feeding trial, dietary monensin in linseed oil diet", "format": "in vivo", "procedure": "(§7) Eight Hereford steers are selected and equipped with rumen and duodenal cannulae. All steers are housed in individual tie stalls. The duration of the trial is the last 90 days of the finishing period.\n(§8) The eight steers are used in two four-by-four Latin Square designs. Each square has four steers with four treatments imposed. The four treatments are 0, 10, 40 and 70 mg of dietary monensin. Each square has a different source of dietary fatty acids. In the first square, dietary fat is supplied by linseed oil, which has a high proportion of fatty acid linolenate. The second square has the dietary fat supplied by MEGALAC, which is a calcium salt of palm oil fatty acids having a high proportion of fatty acid oleate.\n(§9) Steers are fed identical diets in both squares except for source of fatty acids, and the diets are formulated for high rate of body weight gain (1 kg/day). All diets are calculated to deliver 0.75 kg/steer/day of added dietary linseed oil or MEGALAC. Remaining dietary ingredients are low in fat, and include corn silage, corn, barley, soybean meal, bloodmeal, Smartamine-M (rumen bypass methionine), sodium bicarbonate and vitamin-mineral premix. All diets are offered as Total Mixed Rations twice daily in quantities to assure at least 10% refusal per day of the amount offered.\n(§10) Steers are fed their assigned diets for two weeks, with week one as an adaptation and week two as the experimental feeding period. Sampling is on the last 3 days of this second week. All steers are then moved onto a different diet in such a manner that by the end of the trial all steers have received all diets within each Latin Square.\n(§11) During the second week of each period daily dry matter intakes are recorded. Total mixed rations are sampled daily and composited weekly. These are analyzed for crude protein, NDF and total fat. During the last 3 days of the second week individual body weights are recorded.\nas §6, with “week” for “week,”, “duodenal” for “duodonal”"}, "Hereford steers [4]": {"system": "Hereford steers", "assay": "Beef cattle feeding trial, dietary monensin in MEGALAC diet", "format": "in vivo", "procedure": "as §7, §8, §9, §10, §11\nas §6, with “week” for “week,”, “duodenal” for “duodonal”"}, "[5]": {"details": "40 mg monensin, P<0.05, linseed oil diet"}, "[6]": {"details": "70 mg monensin, P<0.05, linseed oil diet"}, "[7]": {"details": "40 mg monensin, P<0.05, MEGALAC diet"}, "[8]": {"details": "70 mg monensin, P<0.05, MEGALAC diet"}, "[9]": {"details": "10 and 40 mg monensin, P<0.05, steers"}}, "data": [{"compound": "CC1(C)S[C@@H]2[C@H](NC(=O)[C@H](N)c3ccc(O)cc3)C(=O)N2[C@H]1C(=O)O", "note": "[amoxicillin]", "values": [{"measurement": "Antimicrobial inhibition of lipolysis and lipid biohydrogenation of soybean oil", "setting": "rumen fluid", "result": "most potent inhibitors"}]}, {"compound": "CC[C@@]1([C@@H]2O[C@@H]([C@H]3O[C@@](O)(CO)[C@H](C)C[C@@H]3C)C[C@@H]2C)CC[C@H]([C@]2(C)CC[C@]3(C[C@H](O)[C@@H](C)[C@@H]([C@@H](C)[C@@H](OC)[C@H](C)C(=O)O)O3)O2)O1", "note": "[monensin]", "values": [{"measurement": "DMI", "setting": "Holstein cows [1]; 0 to 70 mg monensin addition, linseed oil diet, dairy cows", "result": "no effect"}, {"measurement": "Milk linolenate increase vs. 0 mg supplementation", "setting": "Holstein cows [1]; 10 mg monensin, P<0.05, linseed oil diet", "result": 25, "unit": "%"}, {"measurement": "Rumen rate of passage", "setting": "Holstein cows [1]; 10 mg monensin, P<0.1, linseed oil diet", "result": "tends to increase"}, {"measurement": "Milk production improvement", "setting": "Holstein cows [1]; 10 mg monensin, tends (P<0.1), linseed oil diet", "result": 3, "unit": "lbs. per day"}, {"measurement": "Milk linolenate increase vs. 0 mg supplementation", "setting": "Holstein cows [1]; [5]", "result": 28, "unit": "%"}, {"measurement": "Milk production improvement", "setting": "Holstein cows [1]; [5]", "result": 3.5, "unit": "lb/day"}, {"measurement": "Milk production", "setting": "Holstein cows [1]; 70 mg monensin vs 40 mg, linseed oil diet", "result": "no further improvement"}, {"measurement": "Milk fat percentage reduction", "setting": "Holstein cows [1]; [6]", "result": 0.3, "unit": "percentage points"}, {"measurement": "Milk linolenate increase vs. 0 mg supplementation", "setting": "Holstein cows [1]; [6]", "result": 37, "unit": "%"}, {"measurement": "Rumen liquid turnover rate increase", "setting": "Holstein cows [1]; 70 mg monensin, P<0.1, linseed oil diet", "result": 5, "unit": "%"}, {"measurement": "Bypass linolenic acid", "setting": "Holstein cows [1]; 70 mg monensin, linseed oil diet", "result": "about 30%"}, {"measurement": "Increase of linolenic acid in duodenal contents", "setting": "Holstein cows [1]; 10 and 40 mg monensin, P<0.05, linseed oil diet", "result": 20, "unit": "percentage points"}, {"measurement": "Estimated rumen bypass rate for linolenic acid", "setting": "Holstein cows [1]; 10 and 40 mg monensin, linseed oil diet (0 mg: 8%)", "result": 28, "unit": "%"}, {"measurement": "Rumen rate of passage increase", "setting": "Holstein cows [1]; 40 and 70 mg monensin, linseed oil diet", "result": 6, "unit": "%"}, {"measurement": "Rumen liquid turnover rate", "setting": "Holstein cows [1]; between 0, 10 and 40 mg monensin, linseed oil diet", "result": "not different"}, {"measurement": "Milk protein percentages", "setting": "Holstein cows [1]; diets with different concentrations of monensin, linseed oil diet", "result": "not different"}, {"measurement": "Milk fat percentage", "setting": "Holstein cows [1]; lower inclusion rates of monensin, linseed oil diet", "result": "only a tendency for a reduction"}, {"measurement": "DMI", "setting": "Holstein cows [2]; 0 to 70 mg monensin addition, MEGALAC diet, dairy cows", "result": "no effect"}, {"measurement": "Milk oleate increase vs. 0 mg supplementation", "setting": "Holstein cows [2]; 10 mg monensin, P<0.05, MEGALAC diet", "result": 22, "unit": "%"}, {"measurement": "Rumen rate of passage", "setting": "Holstein cows [2]; 10 mg monensin, P<0.1, MEGALAC diet", "result": "tends to increase"}, {"measurement": "Milk production improvement", "setting": "Holstein cows [2]; 10 mg monensin, tends (P<0.1), MEGALAC diet", "result": 2.8, "unit": "lbs. per day"}, {"measurement": "Milk oleate increase vs. 0 mg supplementation", "setting": "Holstein cows [2]; [7]", "result": 31, "unit": "%"}, {"measurement": "Milk production improvement", "setting": "Holstein cows [2]; [7]", "result": 3.9, "unit": "lb/day"}, {"measurement": "Milk production", "setting": "Holstein cows [2]; 70 mg monensin vs 40 mg, MEGALAC diet", "result": "no further improvement"}, {"measurement": "Bypass linolenic acid", "setting": "Holstein cows [2]; 70 mg monensin, MEGALAC diet", "result": "about 33%"}, {"measurement": "Milk fat percentage reduction", "setting": "Holstein cows [2]; [8]", "result": 0.25, "unit": "percentage points"}, {"measurement": "Milk oleate increase vs. 0 mg supplementation", "setting": "Holstein cows [2]; [8]", "result": 39, "unit": "%"}, {"measurement": "Rumen liquid turnover rate increase", "setting": "Holstein cows [2]; 70 mg monensin, P<0.1, MEGALAC diet", "result": 6, "unit": "%"}, {"measurement": "Estimated rumen bypass rate for oleic acid", "setting": "Holstein cows [2]; 10 and 40 mg monensin, MEGALAC diet (0 mg: 56%)", "result": 74, "unit": "%"}, {"measurement": "Increase of oleic acid in duodenal contents", "setting": "Holstein cows [2]; 10 and 40 mg monensin, P<0.05, MEGALAC diet", "result": 18, "unit": "percentage points"}, {"measurement": "Rumen rate of passage increase", "setting": "Holstein cows [2]; 40 and 70 mg monensin, MEGALAC diet", "result": 6.4, "unit": "%"}, {"measurement": "Rumen liquid turnover rate", "setting": "Holstein cows [2]; between 0, 10 and 40 mg monensin, MEGALAC diet", "result": "not different"}, {"measurement": "Milk protein percentages", "setting": "Holstein cows [2]; diets with different concentrations of monensin, MEGALAC diet", "result": "not different"}, {"measurement": "Milk fat percentage", "setting": "Holstein cows [2]; lower inclusion rates of monensin, MEGALAC diet", "result": "only a tendency for a reduction"}, {"measurement": "Rumen rate of passage", "setting": "Hereford steers [3]; 10 mg monensin, P<0.1, steers", "result": "tends to increase"}, {"measurement": "DMI", "setting": "Hereford steers [3]; 10 mg monensin, steers", "result": "no significant effect"}, {"measurement": "Rumen liquid turnover rate increase", "setting": "Hereford steers [3]; 70 mg monensin, P<0.1, steers", "result": 5, "unit": "%"}, {"measurement": "Bypass linolenic acid", "setting": "Hereford steers [3]; 70 mg monensin, steers", "result": "about 29%"}, {"measurement": "Increase of linolenic acid in duodenal contents", "setting": "Hereford steers [3]; [9]", "result": 24, "unit": "percentage points"}, {"measurement": "Rumen bypass rate for linolenic acid", "setting": "Hereford steers [3]; 10 and 40 mg monensin, steers (0 mg: about 10%)", "result": 34, "unit": "%"}, {"measurement": "DMI reduction", "setting": "Hereford steers [3]; 40 and 70 mg monensin diets, steers", "result": 5, "unit": "%"}, {"measurement": "Rumen rate of passage increase", "setting": "Hereford steers [3]; 40 and 70 mg monensin, steers", "result": 6, "unit": "%"}, {"measurement": "Rumen liquid turnover rate", "setting": "Hereford steers [3]; between 0, 40 and 70 mg monensin, steers", "result": "not different"}, {"measurement": "DMI", "setting": "Hereford steers [4]; 10 mg monensin addition, steers", "result": "no effect"}, {"measurement": "Rumen rate of passage", "setting": "Hereford steers [4]; 10 mg monensin, P<0.1, steers", "result": "tends to increase"}, {"measurement": "Rumen liquid turnover rate increase", "setting": "Hereford steers [4]; 70 mg monensin, P<0.1, steers", "result": 4, "unit": "%"}, {"measurement": "Bypass linolenic acid", "setting": "Hereford steers [4]; 70 mg monensin, steers", "result": "about 39%"}, {"measurement": "Increase of oleic acid in duodenal contents", "setting": "Hereford steers [4]; [9]", "result": 22, "unit": "percentage points"}, {"measurement": "Estimated rumen bypass rate for oleic acid", "setting": "Hereford steers [4]; 10 and 40 mg monensin, steers (0 mg: 66%)", "result": 88, "unit": "%"}, {"measurement": "DMI reduction compared to controls", "setting": "Hereford steers [4]; 40 and 70 mg monensin, steers", "result": 8, "unit": "%"}, {"measurement": "Rumen rate of passage increase", "setting": "Hereford steers [4]; 40 and 70 mg monensin, steers", "result": 5.4, "unit": "%"}, {"measurement": "Rumen liquid turnover rate", "setting": "Hereford steers [4]; between 0, 10 and 40 mg monensin, steers", "result": "not different"}]}]}
